Measurements reported in US20260207604A1, “COMPOUND AND USE THEREOF” (ONQUALITY PHARMACEUTICALS CHINA LTD., priority 2022, published 2026).
Where two headings read alike, the source gives them in different places.

Assays:
CDK2/cyclin E = CDK2/cyclin E (Homo sapiens, UniProt P24941); assay: KinaseProfile radiometric protein kinase assay, CDK2/cyclin E; assay type: biochemical
Description: (§1) The KinaseProfile radiometric protein kinase assay was used to evaluate the inhibitory activity of the compounds against CDK2/cyclin E, CDK4/cyclin D, CDK6/cyclin D, CDK7/cyclin H and CDK9/cyclin T.
(§2) The compounds were prepared in 100% DMSO at a final 50× stock concentration. The working stock solution was added as the first component to the assay wells. CDK2/cyclin E, CDK4/cyclin D, CDK6/cyclin D, CDK7/cyclin H, and CDK9/cyclin T were added in their respective kinase buffers: (CDK4: 8 mM MOPS pH 7.0, 0.2 mM EDTA, 0.03% BSA, 0.03% Tween 20, 20 mM DTT, and 0.2 mg/ml Rb fragment, 10 mM Magnesium acetate; CDK2, CDK6: 8 mM MOPS pH 7.0, 0.2 mM EDTA, 0.1 mg/mL histone H1, 10 mM Magnesium acetate; CDK7: 8 mM MOPS pH 7.0, 0.2 mM EDTA, 500 μM peptide, 10 mM Magnesium acetate; CDK9: 8 mM MOPS pH 7.0, 0.2 mM EDTA, 100 μM […], 10 mM Magnesium acetate) and [γ-^33 P-ATP] was included in the reaction mixture. The reaction was initiated by the addition of the Mg/ATP mixture and incubated at room temperature for 40 minutes. The reaction was terminated by the addition of 0.5% phosphoric acid. Then, 10 μL of the reaction mixture was spotted onto P30 filter pads, washed four times (1 minute each) with 0.425% phosphoric acid, followed by a single wash with methanol. The pads were then dried and counted. The data were recorded, inhibition rates were calculated, and IC50 values were determined accordingly. Table 2 summarizes the in vitro enzymatic inhibitory activity of the compounds of the present application.

CDK6/cyclin D = CDK6/cyclin D (Homo sapiens, UniProt Q00534); assay: KinaseProfile radiometric protein kinase assay, CDK6/cyclin D; assay type: biochemical
Sequence of CDK6/cyclin D (Q00534 whole entry): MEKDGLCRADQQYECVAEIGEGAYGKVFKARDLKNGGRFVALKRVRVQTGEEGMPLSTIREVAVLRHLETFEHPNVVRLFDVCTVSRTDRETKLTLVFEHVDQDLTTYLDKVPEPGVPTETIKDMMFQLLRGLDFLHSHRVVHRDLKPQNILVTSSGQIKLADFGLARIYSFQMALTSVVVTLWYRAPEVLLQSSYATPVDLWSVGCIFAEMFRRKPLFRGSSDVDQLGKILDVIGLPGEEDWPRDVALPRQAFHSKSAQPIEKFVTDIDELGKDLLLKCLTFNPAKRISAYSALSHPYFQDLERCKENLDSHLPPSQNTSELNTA
Sequence of CDK6/cyclin D (P30281 whole entry partner): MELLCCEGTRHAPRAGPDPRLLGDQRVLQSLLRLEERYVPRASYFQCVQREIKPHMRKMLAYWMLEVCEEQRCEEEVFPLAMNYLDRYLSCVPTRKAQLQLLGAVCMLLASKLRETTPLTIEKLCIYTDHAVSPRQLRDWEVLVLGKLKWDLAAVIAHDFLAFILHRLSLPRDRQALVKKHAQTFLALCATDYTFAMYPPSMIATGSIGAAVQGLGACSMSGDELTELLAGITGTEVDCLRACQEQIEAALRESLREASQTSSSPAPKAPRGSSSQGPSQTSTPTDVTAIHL
Description: as §1, §2

CDK7/cyclin H = CDK7/cyclin H (Homo sapiens, UniProt P50613); assay: KinaseProfile radiometric protein kinase assay, CDK7/cyclin H; assay type: biochemical
Sequence of CDK7/cyclin H (P50613 whole entry): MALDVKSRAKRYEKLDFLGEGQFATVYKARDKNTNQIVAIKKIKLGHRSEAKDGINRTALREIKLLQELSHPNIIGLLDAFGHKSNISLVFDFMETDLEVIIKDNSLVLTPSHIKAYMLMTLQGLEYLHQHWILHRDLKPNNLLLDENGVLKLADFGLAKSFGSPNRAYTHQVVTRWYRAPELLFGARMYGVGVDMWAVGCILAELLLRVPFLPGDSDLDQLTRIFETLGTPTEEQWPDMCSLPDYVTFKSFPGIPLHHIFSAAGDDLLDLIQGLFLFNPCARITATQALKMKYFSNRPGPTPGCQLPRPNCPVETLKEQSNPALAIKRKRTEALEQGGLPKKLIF
Sequence of CDK7/cyclin H (P51946 whole entry partner): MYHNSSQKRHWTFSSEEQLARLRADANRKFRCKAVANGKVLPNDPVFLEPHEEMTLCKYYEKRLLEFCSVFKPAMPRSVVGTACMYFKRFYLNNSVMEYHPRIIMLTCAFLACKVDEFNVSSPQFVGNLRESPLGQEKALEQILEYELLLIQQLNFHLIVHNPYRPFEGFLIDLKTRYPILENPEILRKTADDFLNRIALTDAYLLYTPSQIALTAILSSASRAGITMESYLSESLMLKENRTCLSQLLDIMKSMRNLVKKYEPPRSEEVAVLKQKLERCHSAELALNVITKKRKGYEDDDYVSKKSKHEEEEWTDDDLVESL
Sequence of CDK7/cyclin H (P51948 whole entry partner): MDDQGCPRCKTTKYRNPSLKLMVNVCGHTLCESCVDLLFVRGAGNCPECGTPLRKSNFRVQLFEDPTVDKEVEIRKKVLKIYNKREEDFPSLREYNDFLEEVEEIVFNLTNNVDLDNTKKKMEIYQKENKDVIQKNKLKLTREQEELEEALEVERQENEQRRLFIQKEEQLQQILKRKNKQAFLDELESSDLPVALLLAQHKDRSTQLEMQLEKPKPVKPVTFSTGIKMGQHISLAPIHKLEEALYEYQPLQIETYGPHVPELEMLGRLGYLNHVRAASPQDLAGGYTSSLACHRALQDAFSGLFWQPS
Description: as §1, §2

CDK9/cyclin T = CDK9/cyclin T (Homo sapiens, UniProt P50750); assay: KinaseProfile radiometric protein kinase assay, CDK9/cyclin T; assay type: biochemical
Sequence of CDK9/cyclin T (P50750 whole entry): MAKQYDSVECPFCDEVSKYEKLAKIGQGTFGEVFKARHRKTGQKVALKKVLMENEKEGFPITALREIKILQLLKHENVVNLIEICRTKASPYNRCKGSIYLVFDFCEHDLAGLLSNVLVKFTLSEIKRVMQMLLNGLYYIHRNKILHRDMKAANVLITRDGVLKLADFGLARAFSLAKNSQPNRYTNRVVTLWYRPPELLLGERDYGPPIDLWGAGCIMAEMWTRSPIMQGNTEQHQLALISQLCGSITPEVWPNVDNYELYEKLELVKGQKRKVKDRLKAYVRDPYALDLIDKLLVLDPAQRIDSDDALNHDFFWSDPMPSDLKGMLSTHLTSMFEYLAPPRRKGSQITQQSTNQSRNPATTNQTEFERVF
Sequence of CDK9/cyclin T (O60563 whole entry partner): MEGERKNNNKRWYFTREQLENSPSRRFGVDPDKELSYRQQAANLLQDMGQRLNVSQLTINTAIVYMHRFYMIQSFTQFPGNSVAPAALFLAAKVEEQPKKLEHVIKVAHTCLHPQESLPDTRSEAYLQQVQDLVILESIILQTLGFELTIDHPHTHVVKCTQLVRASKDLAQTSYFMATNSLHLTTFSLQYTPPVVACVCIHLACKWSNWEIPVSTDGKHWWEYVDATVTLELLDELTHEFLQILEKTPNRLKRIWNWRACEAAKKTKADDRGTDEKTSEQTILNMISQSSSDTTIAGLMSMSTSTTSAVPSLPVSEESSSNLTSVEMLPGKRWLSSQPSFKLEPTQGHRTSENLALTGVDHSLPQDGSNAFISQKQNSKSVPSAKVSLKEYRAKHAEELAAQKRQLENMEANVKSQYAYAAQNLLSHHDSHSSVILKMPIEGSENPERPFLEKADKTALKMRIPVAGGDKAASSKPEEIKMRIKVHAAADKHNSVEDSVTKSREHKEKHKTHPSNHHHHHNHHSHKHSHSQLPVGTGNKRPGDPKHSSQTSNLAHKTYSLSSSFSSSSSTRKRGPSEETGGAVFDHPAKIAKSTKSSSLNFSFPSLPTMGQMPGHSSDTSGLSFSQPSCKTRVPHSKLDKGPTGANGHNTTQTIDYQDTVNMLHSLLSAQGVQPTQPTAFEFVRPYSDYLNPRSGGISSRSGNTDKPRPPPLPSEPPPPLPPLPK
Description: as §1, §2

[1] = tested on: MCF-7 human breast cancer cells; assay: Cell viability assay (CELLTITER-GLO); assay type: cell-based; details: MCF7, 168 h, MCF-7 cells, 7 days
Description: The cell viability of MCF-7 human breast cancer cells under standard culture conditions was assessed using the CELLTITER-GLO assay. MCF-7 cells were seeded at 3,000 cells per well in 96-well plates and incubated overnight in a CO2 incubator. The next day, serial dilutions of Compound 1 at various concentrations were added to the wells. The plates were returned to the incubator and cultured for 7 days. After 7 days, the plates were equilibrated at room temperature for 30 minutes. Subsequently, 100 μL of CELLTITER-GLO detection solution was added. The cells were mixed on an orbital shaker for 5 min and then incubated for additional 10 min. The plate was read with an ENVISION reader. Data were processed and analyzed to determine the IC50 values.

[2] = tested on: 5-FU-induced diarrhea model; assay: 5-FU-induced diarrhea model, 5-FU 1-day model; assay type: in vivo, Balb/c mice; details: 5-FU 175 mg/kg once a day, mice
Source text: (§3) The 5-FU-induced diarrhea model was used as an experimental model of the present invention to evaluate the in vivo activity of the compounds.
Balb/c mice (20-25 g, 7-8 weeks old, Jihui) were acclimated for one week and then randomly assigned to 3 groups (n=10 per group): control group, 5-FU group, and CDK inhibitor group. The control group received the same vehicle as the CDK inhibitor group by oral gavage, followed by injection of the same vehicle as the 5-FU group. The 5-FU group received the same vehicle by oral gavage as the CDK inhibitor group, followed by 5-FU injection. The CDK inhibitor group received oral administration of the CDK inhibitor, followed by 5-FU injection. From day 1 to day 7, the severity of diarrhea was assessed for each mouse according to the diarrhea scoring system.
(§4) The diarrhea scoring system was based on the method by Akinobu Kurita (Cancer Chemother Pharmacol 2000; 46:211-20), Grade 0: normal stool; Grade 1: mild diarrhea, slightly soft stool and wet stool; Grade 2: moderate diarrhea, loose stool with slight perianal staining; Grade 3: severe diarrhea, loose watery stool with severe perianal staining.
(§5) The diarrhea relief rate (%) was calculated as follows: […]

[3] = tested on: 5-FU-induced diarrhea model; assay: 5-FU-induced diarrhea model, 5-FU 3-day model; assay type: in vivo, Balb/c mice; details: 5-FU 60 mg/kg once a day for 3 days, mice
Description: as §3
Balb/c mice (20-25 g, 7-8 weeks old, Jihui) were acclimated for one week and then randomly assigned to 3 groups (n=10 per group): control group, 5-FU group, and CDK inhibitor group. […] […] […] From Day 1 to Day 7, diarrhea severity was assessed daily for each mouse according to the diarrhea scoring system.
as §4, §5

[4] = tested on: Irinotecan-induced diarrhea model; assay: Irinotecan-induced diarrhea model; assay type: in vivo, Balb/c mice; details: irinotecan 230 mg/kg once a day, 1 day, mice
Source text: Irinotecan-induced diarrhea and/or constipation models were employed as additional in vivo experimental models to evaluate the activity of the compounds of the present application.
Balb/c mice (20-25 g, 7-8 weeks old, Jihui) were acclimated for one week and then randomly assigned to 3 groups (n=10 per group): control group, irinotecan group, and CDK inhibitor group. Control group: received the same vehicle as the CDK inhibitor group by oral gavage, followed by injection of the same vehicle as the irinotecan group; irinotecan group: received the same vehicle by oral gavage as the CDK inhibitor group, followed by injection of irinotecan; CDK inhibitor group: received oral administration of the CDK inhibitor, followed by injection of irinotecan.
In the irinotecan group, approximately 6 to 9 out of 10 mice developed diarrhea. From Day 1 to Day 7, the severity of diarrhea in each mouse was evaluated using the following scoring criteria:
as §4, with “staining. Calculate the diarrhea Relief rate of compound treatment. Relief rate (%)=(diarrhea score of irinotecan group−diarrhea score of CDK inhibitor group)/diarrhea score of irinotecan group×100%.” for “staining.”

[5] = 25 mg/kg oral, 6 hours before and 6 hours after 5-FU
[6] = 10 mg/kg oral twice a day for 3.5 days
[7] = 50 mg/kg oral twice a day for 3 days
[8] = 100 mg/kg oral twice a day for 3 days
[9] = 10 mg/kg oral twice a day for 3 days
[10] = 25 mg/kg oral, 6 hours before and 6 hours after irinotecan

IC50 (CDK2/cyclin E) [µM] | IC50 (CDK6/cyclin D) [µM] | IC50 (CDK7/cyclin H) [µM] | IC50 (CDK9/cyclin T) [µM] | IC50 ([1]; read-out: Absolute IC 50) [µM] | IC50 ([1]; read-out: Relative IC 50) [µM] | SMILES | diarrhea relief rate [2, 5] [%] | diarrhea relief rate [3, 6] [%] | diarrhea relief rate [3, 7] [%] | diarrhea relief rate [3, 8] [%] | diarrhea relief rate [3, 9] [%] | diarrhea relief rate [4, 10] [%] | further results
> 3 | < 0.05 | > 3 | > 3 | < 1 | < 1 | CC(=O)c1c(C)c2cnc(Nc3ccc(N4CCN(S(=O)(=O)NCCCN)CC4)cn3)nc2n(C2CCCC2)c1=O [Compound 4] | 80 | 50 | 60 | 40 | – | – | diarrhea relief rate ([2]; 10 mg/kg oral, 8 hours before 5-FU and 4 hours after 5-FU): 25%; diarrhea relief rate ([2]; 50 mg/kg oral, 12 hours before 5-FU): 70%; diarrhea relief rate ([2]; 10 0 mg/kg oral, 8 hours before 5-FU and 4 hours after 5-FU): 25%; diarrhea relief rate ([3]; 5 mg/kg oral twice a day for 3 days): 30%; diarrhea relief rate ([3]; 10 mg/kg oral twice a day for 4 days): 40%; diarrhea relief rate ([3]; 25 mg/kg oral twice a day for 3.5 days): 55%; diarrhea relief rate ([4]; 25 mg/kg oral, 2 hours before and 10 hours after irinotecan): 30%; diarrhea relief rate ([4]; 50 mg/kg oral, 4 hours before and 8 hours after irinotecan): 60%; diarrhea relief rate ([4]; 50 mg/kg oral, 6 hours before and 6 hours after irinotecan): 60%; diarrhea relief rate ([4]; 150 mg/kg oral, 10 hours before irinotecan): 45%
> 3 | < 0.05 | > 10 | > 3 | < 10 | < 10 | CC(=O)c1c(C)c2cnc(Nc3ccc(N4CCN(S(=O)(=O)NCC(C)CN)CC4)cn3)nc2n(C2CCCC2)c1=O (stereo not drawn) [Compound 5] | 40 | 75 | 40 | 50 | 40 | 50 | diarrhea relief rate ([2]; 10 mg/kg oral, 12 hours before 5-FU and 0 hours after 5-FU): 25%; diarrhea relief rate ([2]; 50 mg/kg oral, 8 hours before 5-FU and 4 hours after 5-FU): 30%; diarrhea relief rate ([2]; 100 mg/kg oral, 4 hours before 5-FU and 8 hours after 5-FU): 40%; diarrhea relief rate ([3]; 30 mg/kg oral twice a day for 4 days): 30%; diarrhea relief rate ([3]; 60 mg/kg oral twice a day for 3.5 days): 50%; diarrhea relief rate ([4]; 5 mg/kg oral, 4 hours before and 8 hours after irinotecan): 25%; diarrhea relief rate ([4]; 50 mg/kg oral, 8 hours before irinotecan and 4 hours after irinotecan): 50%; diarrhea relief rate ([4]; 100 mg/kg oral, 10 hours before irinotecan and 2 hours after irinotecan): 35%
> 10 | < 0.1 | > 3 | > 1 | < 1 | < 1 | CC(=O)c1c(C)c2cnc(Nc3ccc(N4CCN(S(=O)(=O)NCC(C)(C)CN)CC4)cn3)nc2n(C2CCCC2)c1=O [Compound 6] | – | – | – | 60 | 30 | 60 | diarrhea relief rate ([2]; 10 mg/kg oral, 10 hours before 5-FU and 2 hours after 5-FU): 60%; diarrhea relief rate ([2]; 25 mg/kg oral, 8 hours before 5-FU and 4 hours after 5-FU): 75%; diarrhea relief rate ([2]; 50 mg/kg oral, 6 hours before and 6 hours after 5-FU): 80%; diarrhea relief rate ([2]; 100 mg/kg oral, 12 hours before 5-FU): 50%; diarrhea relief rate ([3]; 20 mg/kg oral twice a day for 3.5 days): 50%; diarrhea relief rate ([3]; 30 mg/kg oral twice a day for 3 days): 50%; diarrhea relief rate ([3]; 50 mg/kg oral twice a day for 4 days): 75%; diarrhea relief rate ([3]; 80 mg/kg oral twice a day for 3.5 days): 60%; diarrhea relief rate ([4]; 10 mg/kg oral, 4 hours before and 8 hours after irinotecan): 50%; diarrhea relief rate ([4]; 25 mg/kg oral, 4 hours before and 8 hours after irinotecan): 85%; diarrhea relief rate ([4]; 100 mg/kg oral, 12 hours before irinotecan): 40%
